# Laboratory results reported in paper PMC10182601, “Biological evaluation of novel gemcitabine analog in patient-derived xenograft models of pancreatic cancer” (BMC Cancer, 2023).
# Structures can show the parent of a compound that is named as a salt.
# Columns and labels:
# [1] = Pharmacokinetic study in mice (i.v. bolus); assay type: in vivo; conditions: single i.v. bolus, Gem equivalent (b110 prints 20 mg/kg)
# Experimental: For pharmacokinetic (PK) studies, normal healthy mice were grouped into control, GemHCl, and 4NSG-SLN. […] After the injection, aliquots of blood samples were collected at predetermined time points (5, 10, 15, 30, 60, 120, 240, 360, 720, and 1440 min). Blood samples collected were treated with 2 mL of an extraction solvent (15% of isopropyl alcohol in ethyl acetate). The mixture was vortexed for 30 s and centrifuged at 3,000 rpm for 15 min, and the supernatant was collected and vaporized to dry overnight in a water bath. Residual solvent was removed by placing the dried samples in vacuum chamber.
# Five hundred microliters (500 uL) of mobile phase solution was used to reconstitute the dried sample (mobile phase solution was made up of 5% acetonitrile in 10 mM dihydrogen phosphate buffer, pH adjusted to 3). The sample solution was centrifuged at 3,000 rpm for 15 min, supernatant collected and filtered, and samples analyzed for Gem using HPLC. The PK parameters were determined using PKSolver software.
# To determine the concentration of Gem, supernatant from mouse plasma was spiked with aliquots of 0.5 μg/ml of Gem. The chromatographic analysis was performed according to the method described with minor modifications. The samples were collected using supernatants (10µL), aliquots of control (spiked), and mouse plasma. The chromatographic system consisted of an HPLC (Agilent Technologies, 1290 infinity) equipped with an auto-sampler, diode array detector (DAD), and pumps. Separation was performed using a reverse phase column (Zobrax Rapid Resolution High Definition (RRHD) Eclipse plus C18, 2.1 × 50 mm, 1.8 µm). A flow rate of 250 µL/min and injection volume of 10 μL at ambient temperature was maintained at 25 ± 1 °C while detection was performed at 268 nm. Before analysis, the reverse phase column was equilibrated with a mobile phase of 5% acetonitrile in 10 mM dihydrogen phosphate buffer, pH adjusted to 2.5 with trifluoroacetic acid (TFA). Isocratic elution was performed throughout the entire analysis, including internal standards. A calibration curve was prepared using Gem standard solutions with a concentration range of 0.063–2.0 μg/mL. A plot of the peak areas as a function of Gem concentration was plotted, and the linear equation of the calibration curve given as y = mx + c was determined, where y is the peak area, m is the slope, x is the concentration of Gem, and c is the y—intercept.
# PPCL-192 cells = assay: Cell cycle distribution (PI, flow cytometry), PPCL-192; assay type: cell-based, human; conditions: 24 h
# Experimental: Cell cycle study was performed to determine the effect of 4NSG-SLN on the cell cycle; PPCL-192 and PPCL-46 cells (2 × 10^5 cells per well) were seeded in 6-well plates and cultured using DMEM medium supplemented with 10% FBS10 mM HEPES, 10% FBS, and 1% penicillin/streptomycin were seeded in 6-well plates and incubated at 37 °C. After the cells reached 75% confluence, they were exposed to different concentrations (5 μM,10 μM, and 20 µM) of GemHCl and 4NSG-SLN. After 24 h exposure, cells were harvested, washed with PBS, centrifuged at 300 × g for 5 min, resuspended the pellets in 100 μL of PBS, and passed through a 28 5/8 needle to disperse them into single cells. Fixation and permeation of cells were performed using cold 70% ethanol while vortexing. Cells were then stored at − 20 °C overnight. The cells were resuspended in 0.1 mg/mL RNase, stained with […] PI, and the phase distribution was examined using flow cytometry (FACScalibur-Becton Dickinson).
# EGFR = assay: Immunohistochemistry of PDX tumor tissue, EGFR; assay type: in vivo, mice; conditions: for EGFR % Moderate Positive Cells / EGFR % Positive / EGFR % Strong Positive Cells / EGFR % Weak Positive Cells / EGFR %Negative Cells / EGFR H Score: IHC
# Experimental: [The source words this procedure for another target and reports this target under the same test.] Tissue samples from mice bearing tumors from Black and White PCa patients post treatments with GemHCl and 4NSG-SLN were excised and immediately washed with PBS, fixed (10% buffered formalin) for 24 h, and transferred to 70% ethanol for histopathological analysis. Histology was performed by HistoWiz Inc. (Histowiz.com) according to manufacturer protocol. Samples were embedded in paraffin, and 4 μm sections were prepared. Immunohistochemistry was performed on a Bond Rx autostainer (Leica Biosystems) with enzyme treatment (1:1000) using standard protocols (https://home.histowiz.com/faq/). Samples were incubated overnight with primary antibodies (Antibodies used were rat monoclonal F4/80 primary antibody (eBioscience, 14–4801, and 1:200), and immunohistochemical staining was done using rabbit anti-rat secondary (Vector Labs, 1:100). Bond Polymer Refine Detection was used per the manufacturer's protocol (Leica Biosystems). After staining, sections were dehydrated and filmed, coverslipped using a Tissue-Tek Prisma coverslip (Sakura). Whole slide scanning (40x) was performed on an Aperio AT2 (Leica Biosystems).
# [2] = BT PDX tumor tissue after treatment
# [3] = WT PDX tumor tissue after treatment
smiles,measurement,setting,value
"Nc1ccn([C@@H]2O[C@H](CO)[C@@H](O)C2(F)F)c(=O)n1 [GemHCl, Gemcitabine hydrochloride]",clearance,"[1]; mouse, plasma, iv, read-out: Cl (clearance) (converted)",0.355 mL/min
same,Vd,"[1]; mouse, plasma, iv, read-out: Vd (volume of distribution)",0.0217 ± 0.0019 L
same,k el,"[1]; mouse, plasma, iv, read-out: k10 (elimination rate constant) (converted)",0.000281 s⁻¹
same,half-life,"[1]; mouse, plasma, iv, read-out: t1/2 (half-life) (converted)",42 ± 0.6 min
same,AUC(0-t),[1],28200 ± 4300 ng·h/mL
same,%G1,"PPCL-192 cells; PPCL-192, 5 μM",71.08%
same,%G2,"PPCL-192 cells; PPCL-192, 5 μM",11.05%
same,%S,"PPCL-192 cells; PPCL-192, 5 μM",17.87%
same,%G1,"PPCL-192 cells; PPCL-192, 10 μM",74.75%
same,%G2,"PPCL-192 cells; PPCL-192, 10 μM",9.59%
same,%S,"PPCL-192 cells; PPCL-192, 10 μM",15.66%
same,%G1,"PPCL-192 cells; PPCL-192, 20 μM",79.91%
same,%G2,"PPCL-192 cells; PPCL-192, 20 μM",8.23%
same,%S,"PPCL-192 cells; PPCL-192, 20 μM",11.86%
same,EGFR % Moderate Positive Cells,EGFR; [2],0.6 ± 0.2%
same,EGFR % Positive,EGFR; [2],25 ± 4.5%
same,EGFR % Strong Positive Cells,EGFR; [2],0.5 ± 0.1%
same,EGFR % Weak Positive Cells,EGFR; [2],1.4 ± 0.1%
same,EGFR %Negative Cells,EGFR; [2],72.5 ± 1.5%
same,EGFR H Score,EGFR; [2],3.0
same,EGFR expression in representative IHC images,"EGFR; BT and WT PDX tumor tissues, 40X",moderate to high
same,EGFR % Moderate Positive Cells,EGFR; [3],3.1 ± 2.1%
same,EGFR % Positive,EGFR; [3],20 ± 10%
same,EGFR % Strong Positive Cells,EGFR; [3],2.3 ± 1.5%
same,EGFR % Weak Positive Cells,EGFR; [3],2.7 ± 0.7%
same,EGFR %Negative Cells,EGFR; [3],71.9 ± 1.6%
same,EGFR H Score,EGFR; [3],22.1
